Format in all cases: functional
The test system of one assay is SF-268. Kind of assay: Growth inhibition of human SF268 cells after 48 hrs by sulforhodamine B assay. The settings on record: SF-268, 48 h. Background: The SRB assay estimates cell density from bound dye.
For another assay, the system named is MCF7. Kind of assay: Growth inhibition of human MCF7 cells after 48 hrs by sulforhodamine B assay. The settings on record: MCF7, 48 h.
The next assay has as its system Leishmania donovani. Kind of assay: Antileishmanial activity against Leishmania donovani axenic amastigotes infected in human THP1 cells assessed as growth inhibition at 50 uM. The settings on record: THP-1, read-out: GI.
Another assay concerns NCI-H460. The assay is described as follows: Growth inhibition of human NCI-H460 cells after 48 hrs by sulforhodamine B assay. The settings on record: NCI-H460, 48 h.
For the next assay, the system named is THP-1. The assay is described as follows: Growth inhibition of human THP1 cells after 48 hrs by sulforhodamine B assay. The settings on record: THP-1, 48 h.

Structures are written as SMILES.

By GI50 is commonly meant the concentration that inhibits growth by half.

Take `N#CCC(=O)N/N=C(/CBr)c1ccc(Br)cc1`: the GI50 in the assay with SF-268 was 12.8 µM; in the assay on MCF7, 40.6 µM; in the assay with NCI-H460 it was 10 µM. For the same molecule, the inhibition of growth at 50 µM in the assay with Leishmania donovani amounted to 20%.
The corresponding values for `N#CCC(=O)N/N=C(/CBr)c1ccc([N+](=O)[O-])cc1` are 14 µM, 18.4 µM, 10.3 µM and 35%.
For `N#CCC1=NN=C(c2ccc(Br)cc2)CO1` the same measures were 10.3 µM, 1.5 µM, 0.9 µM and 26%.
The corresponding values for `N#CCC1=NN=C(c2ccc([N+](=O)[O-])cc2)CO1` are 1.8 µM, 0.001 µM, 0.002 µM and 44%.
As to `N#CCC1=NN=C(c2ccc(Br)cc2)C(Br)O1` (stereo not given), the concentration for 50% growth inhibition (GI50) was found to be 32 µM in the assay on SF-268, 70.7 µM in the assay with MCF7 and 38.2 µM in the assay on NCI-H460. Besides, in the assay on Leishmania donovani, the inhibition of growth at 50 µM came to 40%.
As for `N#CCC1=NN=C(c2ccc([N+](=O)[O-])cc2)C(Br)O1` (stereo not given), the GI50 in the assay on SF-268 was determined as 6.7 µM; in the assay with MCF7, 10.6 µM; in the assay on NCI-H460 it was 8.5 µM; in the assay with THP-1 it was 22 µM. In addition, the inhibition of growth at 50 µM with Leishmania donovani amounted to 58%.
For `N#CCC1=NN=C(c2ccc(Br)cc2)C(CC(=O)c2ccc(Br)cc2)O1` (stereo not given), the GI50 with SF-268 was 16.9 µM; in the assay with MCF7 it was 30.4 µM; in the assay on NCI-H460, 22.1 µM. Besides, the inhibition of growth at 50 µM in the assay with Leishmania donovani was 48%.
As to `N#CCC1=NN=C(c2ccc(Br)cc2)C(CC(=O)c2ccc([N+](=O)[O-])cc2)O1` (stereo not given), the GI50 in the assay with SF-268 was determined as 18.5 µM; in the assay with MCF7, 32 µM; in the assay on NCI-H460 it was 23 µM; with THP-1, 20 µM. Further, in the assay on Leishmania donovani, the inhibition of growth at 50 µM was 60%.
On to `N#CCC1=NN=C(c2ccc([N+](=O)[O-])cc2)C(CC(=O)c2ccc(Br)cc2)O1` (stereo not given), for which the GI50 stood at 16.5 µM with SF-268, 36 µM in the assay with MCF7 and 40 µM in the assay with NCI-H460. In addition, the inhibition of growth at 50 µM in the assay on Leishmania donovani came out at 73%.
On to `N#CCC1=NN=C(c2ccc([N+](=O)[O-])cc2)C(CC(=O)c2ccc([N+](=O)[O-])cc2)O1` (stereo not given), for which the GI50 in the assay with SF-268 worked out at 2 µM; in the assay on MCF7, 1.6 µM; in the assay with NCI-H460 it was 2.6 µM; in the assay on THP-1, 33 µM. Moreover, in the assay on Leishmania donovani, the inhibition of growth at 50 µM was 88%.
As for `N#CCC1=C(C#N)CC(c2ccc(Br)cc2)=C(CC(=O)c2ccc(Br)cc2)O1`, the values for the GI50 in the assay with SF-268, in the assay on MCF7 and in the assay with NCI-H460 were 8.2 µM, 12 µM and 10.4 µM, respectively. Besides, in the assay on Leishmania donovani, the inhibition of growth at 50 µM came out at 60%.
For the molecule `N#CCC1=C(C#N)CC(c2ccc(Br)cc2)=C(CC(=O)c2ccc([N+](=O)[O-])cc2)O1`, the GI50 is 0.003 µM in the assay with SF-268, 0.09 µM in the assay on MCF7, 0.01 µM in the assay with NCI-H460 and 12.9 µM in the assay on THP-1. The inhibition of growth at 50 µM in the assay on Leishmania donovani turned out to be 90%.
For `N#CCC1=C(C#N)CC(c2ccc([N+](=O)[O-])cc2)=C(CC(=O)c2ccc(Br)cc2)O1` the same measures were 2.8 µM, 4.9 µM, 3.6 µM, 26 µM and 82%.
The corresponding values for `N#CCC1=C(C#N)CC(c2ccc([N+](=O)[O-])cc2)=C(CC(=O)c2ccc([N+](=O)[O-])cc2)O1` are 0.005 µM, 0.03 µM, 0.08 µM, 10.2 µM and 98%.
Regarding `C[C@@H]1[C@H](O)[C@@H](C)/C=C/C=C/C=C/C=C/C=C/C=C/C=C/[C@H](O[C@@H]2O[C@H](C)[C@@H](O)[C@H](N)[C@@H]2O)C[C@@H]2O[C@](O)(C[C@@H](O)C[C@@H](O)[C@H](O)CC[C@@H](O)C[C@@H](O)CC(=O)O[C@H]1C)C[C@H](O)[C@H]2C(=O)O` [AMPHOTERICIN B], the inhibition of growth at 50 µM in the assay on Leishmania donovani was found to be 95%.
Regarding `COc1cccc2c1C(=O)c1c(O)c3c(c(O)c1C2=O)C[C@@](O)(C(=O)CO)C[C@@H]3O[C@H]1C[C@H](N)[C@H](O)[C@H](C)O1` [DOXORUBICIN], the GI50 in the assay with SF-268 and in the assay on NCI-H460 was 0.094 µM throughout.

Source of the values: ChEMBL document CHEMBL1764977, “Anti-tumor and anti-leishmanial evaluations of 1,3,4-oxadiazine, pyran derivatives derived from cross-coupling reactions of β-bromo-6H-1,3,4-oxadiazine derivatives” (2011).
